Experimental data reported in US20240325539A1, “METHODS AND COMPOSITIONS FOR TREATING EPSTEIN BARR VIRUS-ASSOCIATED CANCER” (The Chancellor, Masters and Scholars of the University of …, priority 2020, published 2024).

Assays:
NCC-24 cells = experiment: Western blot for p53 and Zta; assay type: cell-based, human; conditions: NCC-24, mutant TP53 (G266R and R273H)
AGS-EBV cells [1] = experiment: Zta expression (immunofluorescence and Western blot); assay type: cell-based, human; conditions: for Zta expression: 5 μM SAHA, 5 μM chidamide, 2.5 μM CXD101
Protocol: (§1) Protein concentration was determined by the Bradford assay.

AGS-EBV cells [2] = experiment: Killing of AGS-EBV cells by Zta-specific TCR-T cells (IncuCyte, Cytotox Red); assay type: cell-based, human; conditions: for cell death of AGS-EBV cells: HDACi pre-treatment, then primary T cells expressing TCR4, after 8 h of co-culture, compared to DMSO
Protocol: EBV+GC cells were treated with either 2.5 μM of CXD101, 5 μM of chidamide, or 5 μM of SAHA, and DMSO was used as a negative control. Approximately 10×10^5 AGS-EBV cells were plated in […] the day before treatment to allow 50% confluence. The next day, the media was removed, and the cells were treated for 48 hours with the HDACi or DMSO. After 48 hours, the cells were dissociated with trypsin-EDTA and counted. The dissociated cells were plated in the wells of a flat-bottomed 96-well plate and left to adhere for 4-6 hours before the addition of Zta-specific T cells. The IncuCyte S3 Live-Cell analysis system was used to analyze the interactions between the T cells and the HDACi-treated gastric cells over a period of 24 hours. The cells were cultured at an E:T ratio of 10:1. The IncuCyte® Cytotox Red Reagent for counting dead cells was added to each well at the start of incubation. The treated AGS-EBV cells were co-cultured with the HLA-A*02:01-restricted TCR4 primary T cell clones and the HLA-mismatched control clone, TCR9. After 24 hours of incubation, the supernatant was removed from the wells for quantification of cytokines. The ability of the clones to kill the target cells was assessed using the automated IncuCyte analysis software. The Cytotox Red apoptosis marker that was added to the wells at the start of co-culture was taken up by dead cells, and the overlap area of this red fluorescence with larger, very bright GFP cells was measured in μm^2 per replicate well at each set time point.

YCCEL1 cells [3] = experiment: Western blot for Zta and total acetylation of histone 3; assay type: cell-based, human; conditions: FIGS. 1C and 9D (YCCEL1; SNU719)
Protocol: as §1

AGS-EBV cells [4] = experiment: RT-qPCR of EBV lytic genes; assay type: cell-based, human
Excerpt: RNA was extracted from cells using the RNeasy Mini Kit (Qiagen), following the manufacturer's instructions. Possible contamination with genomic DNA was removed by treatment with DNase I according to the manufacturer's instructions. One μg was used to generate cDNA using the SuperScript Reverse Transcriptase III System following the manufacturer's instructions. QuantiTect SYBR Green PCR Kit was used to perform RT-qPCR using the StepOnePlus real-time PCR system (Applied Biosystems). Reactions were performed in duplicate and in a final volume of 20 μL. Relative mRNA abundances were normalized to endogenous glyceraldehyde 3-phosphate dehydrogenase (GAPDH) mRNA levels. Shown qPCR results were analyzed by the ΔΔCt-method, with the threshold cycles being determined by the Applied Biosystems software.

YCCEL1 cells [5] = assay type: cell-based, human
[6] = system: Burkitt lymphoma cell lines Namalwa, Raji, and Akata; experiment: Western blot for Zta and H3-ac in Burkitt lymphoma cell lines; assay type: cell-based, human; conditions: naturally infected Burkitt lymphoma cell lines
Protocol: as §1
(§2) CXD101 is currently undergoing clinical trials (Eyre, T. A., et al. (2019). Cancer 125, 99-108.), and chidamide is approved in China by the National Medical Products Administration (NMPA) for treatment of peripheral T-cell lymphoma (Xu, Y., et al. (2017). Drugs of Today; 53.) and breast cancer (Jiang, Z., et al. (2018). Annals of Oncology; 29.). Therefore, chidamide and CXD101 were used to treat naturally-infected Burkitt lymphoma cell lines Namalwa, Raji, and Akata, or the ex vivo infected lymphoblastoid cell line PD-LCL in parallel with YCCEL1 cells. Romidepsin was used to treat the same panel of cells. […] Zta expression level in ex vivo infected B cell line PD-LCL is detectable in DMSO treated cells and it is not affected after HDACi treatment. All HDACis used induced detectable amounts of H3-ac, with cell line-dependent variation (FIG. 1E). To assess the extent of EBV reactivation, mRNA expression of several immediate-early, early, and late lytic genes was analysed (FIG. 9E). […] Up to 5-10% of YCCEL1 and SNU719 cells were positive for late Viral Capsid Antigen (VCA) after chidamide or CXD101 treatment, but not SAHA-treatment. […] Both benzamide- and hydroxymate-based HDACi can induce EBV reactivation in gastric epithelial cancer cells, but benzamide-based HDACis are generally less toxic than hydroxymate-based HDACi.

YCCEL1 cells [7] = experiment: High content imaging of Zta-positive cells (immunofluorescence)
Protocol: Cells were seeded on 13 mm coverslips or 96 well-plates 24 h prior to the treatment. After washing with PBS, cells were fixed by the addition of 4% formaldehyde (Life Technologies) in PBS for 10 min, washed three times with PBS, and incubated with 0.1% Triton X-100 for 20 min. After three more washes, coverslips were incubated with Signal Enhancer for 30 min. Following one wash, cells were incubated with the primary antibody diluted in antibody diluent (Dako) with a background reducing agent for 90 min. After washing three times, coverslips were incubated with a secondary antibody solution containing DAPI diluted in antibody diluent for 1 h in the dark. Coverslips were washed three times with PBS and once in purified water before coverslips were mounted on Polysine Microscope Adhesion slides with ProLong Gold Antifade Mountant (Life Technologies). Cells affixed on slides were visualized using a Zeiss LSM 710 laser scanning confocal microscope, while cells on 96 well plates were visualized using the Operetta High Content Screening System (PerkinElmer).
Experiments were run in duplicate. Liquid handling for cell plating, drug treatment, and cell fixation was performed using a JANUS PerkinElmer Automated Workstation (PerkinElmer). […] All other staining steps were performed with a FlexDrop PLUS (PerkinElmer). Cells were visualized using a GE IN Cell Analyzer 6000 (GE Healthcare Life Sciences) with a 10× objective. Percentages of Zta-positive cells within the wells were assessed with a protocol established within the Columbus software (PerkinElmer).
The readout was percentage of cells positive for the immediate-early viral transcription factor Zta, as assessed by immunofluorescence staining and confocal microscopy.

[8] = system: PBMCs from an EBV+ healthy donor; experiment: IFNγ ELISpot of ex vivo EBV-specific CD8+ T cell responses; assay type: cell-based, human; conditions: PBMCs with pool of EBV epitopes, 12 hours; range of doses
Excerpt: To be able to effectively “kick” EBV+GC cells into Zta+ abortive EBV reactivation lytic cycle presented us with an opportunity to “kill” the reactivated EBV+ cancer cells by harnessing the host's immune system, Zta specific T cells in particular as Zta is highly immunogenic (Pudney, V. A., et al. (2005). J Exp Med 201, 349-360) and many EBV seropositive individuals have Zta memory T cells. This study was set out to test whether HDACi have any direct impacts on CD8+ T cell responses to EBV viral antigens. Peripheral blood mononuclear cells (PBMCs) from an EBV+ healthy donor were stimulated with a pool of pre-determined EBV epitopes in the presence or absence of HDACi for 12 hours, and ex vivo EBV-specific CD8+ T cell responses were determined by an IFNγ ELISpot assay. […] In parallel, the optimal dose of each HDACi for AGS-EBV to minimize cell toxicity versus their ability to induce Zta expression was determined (FIG. 15A). To provide a proof of principle, whether reactivation of Zta by HDACi could sensitize tumor cells for recognition and killing by Zta-specific CD8+ T cells was subsequently tested. […] The TCR gene was retrovirally transduced into a TCR-negative T cell line (SKW3) or primary human CD8+ T cells for functional readouts, including cytokine production and killing of the tumor cells.

PD-LCL cells = experiment: Western blot for Zta in lymphoblastoid cell line; assay type: cell-based, human; conditions: detectable in DMSO treated cells
Protocol: as §1, §2

COc1ccc(C2=N[C@@H](c3ccc(Cl)cc3)[C@@H](c3ccc(Cl)cc3)N2C(=O)N2CCNC(=O)C2)c(OC(C)C)c1 [nutlin-3a]
Zta expression (NCC-24 cells): failed to express Zta
Zta expression (Western blot) (AGS-EBV cells [1]; agent alone): able to induce high levels of Zta expression

O=C(CCCCCCC(=O)Nc1ccccc1)NO [SAHA]
cell death of AGS-EBV cells (AGS-EBV cells [2]): dramatic increase in cell death
induction of Zta expression (Western blot) (YCCEL1 cells [3]): failure
total histone 3 acetylation (H3-ac) (YCCEL1 cells [3]): induced detectable H3-ac
activation of lytic genes (AGS-EBV cells [4]): comparable activation of lytic genes
Zta expression (AGS-EBV cells [1]): strong activation of Zta expression

Cc1nn(C)cc1CN1CCC(c2ccc(C(=O)Nc3ccccc3N)cc2)CC1 [CXD101]
toxicity (cell number relative to DMSO) (YCCEL1 cells [5]): low toxicity
toxicity induced by T cells (AGS-EBV cells [2]; AGS-EBV, compared to SAHA (P<0.01)): more pronounced
cell death of AGS-EBV cells (AGS-EBV cells [2]): dramatic increase in cell death
Zta expression [6]: none of these HDACi induced Zta expression
Zta+ cells (YCCEL1 cells [7]; 5 μM): 36.5%
Zta+ cells (YCCEL1 cells [7]; 10 μM): 40.7%
Zta expression / EBV reactivation (YCCEL1 cells [7]; increasing concentrations (FIG. 1B)): strong dose-dependent effect on Zta expression
activation of lytic genes (AGS-EBV cells [4]): comparable activation of lytic genes
effect on T cell responses to EBV antigens [8]: little, if any, inhibitory effect
Zta expression level (PD-LCL cells): not affected
Zta expression (AGS-EBV cells [1]): strong activation of Zta expression
